Experimental data taken from ChEMBL document CHEMBL6103645, “Modular Synthesis of Bioactive Selenoheterocycles for Efficient Cancer Therapy via Electrochemical Selenylation/Cyclization” (J Med Chem, 2025).
Calls of active or inactive are those of the source. The calls are words filed in the database; no cut-off is given here.

Tests used:
[1] = tested on: NCI-H460; assay: Anti-tumor activity against human NCI-H460 cells assessed as cell viability incubated for 48 hrs by CCK-8 assay; format: functional, cell-based; settings: NCI-H460, 48 h
[2] = Antiproliferative activity against rat PA-III cells incubated for 24 hrs by MTT assay; format: functional, cell-based
[3] = tested on: PC-3M; assay: Antiproliferative activity against human PC-3M cells incubated for 24 hrs by MTT assay; format: functional, cell-based
[4] = tested on: NCI-H460; assay: Induction of DNA damage in human NCI-H460 cells assessed as increase in gammaH2AX positive cells by DAPI staining based confocal laser scanning microscopic analysis; format: functional, cell-based
[5] = tested on: NCI-H460; assay: Inhibition of epithelial mesenchymal transition in human NCI-H460 cells assessed as decrease in N-cadherin protein expression by Western blotting analysis; format: functional, cell-based
[6] = tested on: NCI-H460; assay: Induction of apoptosis in human NCI-H460 cells assessed as apoptosis rate at 500 nM incubated for 24 hrs by annexin V-FITC/PI staining based flow cytometry analysis relative to control; format: functional
[7] = tested on: NCI-H460; assay: Inhibition of epithelial mesenchymal transition in human NCI-H460 cells assessed as increase in E-cadherin protein expression by Western blotting analysis; format: functional, cell-based
[8] = tested on: NCI-H460; assay: Inhibition of cell invasion in human NCI-H460 cells assessed as decrease in number of invading cells at 500 nM incubated for 48 hrs by transwell assay; format: functional, cell-based
[9] = tested on: HT-29; assay: Anti-tumor activity against human HT-29 cells assessed as cell viability incubated for 48 hrs by CCK-8 assay; format: functional, cell-based
[10] = tested on: NCI-H460; assay: Induction of apoptosis in human NCI-H460 cells assessed as downregulation of Bcl2 expression at 500 nM incubated for 24 hrs by Western blot analysis; format: functional, cell-based
[11] = Hemolytic activity in BALB/c mouse Red blood cells assessed as effect on morphological structure at 10 to 100 uM incubated for 2 hrs; format: toxicity, cell-based; settings: erythrocyte, dose 10-100 µM
[12] = tested on: MCF7; assay: Anti-tumor activity against human MCF7 cells assessed as cell viability incubated for 48 hrs by CCK-8 assay; format: functional, cell-based
[13] = tested on: NCI-H460; assay: Inhibition of colony formation in human NCI-H460 cells assessed as reduction in colony formation rate upto 12.5 uM incubated for 14 days by crystal violet staining based analysis; format: functional, cell-based; settings: time 14.0 day
[14] = tested on: NCI-H460; assay: Induction of DNA damage in human NCI-H460 cells assessed as increase in gammaH2AX positive cells by immunofluorescence analysis; format: functional, cell-based
[15] = tested on: NCI-H460; assay: Anti-migratory activity against human NCI-H460 cells assessed as inhibition of cell migration at 500 nM measured for 48 hrs by wound healing assay; format: functional, cell-based
[16] = Hemolytic activity in BALB/c mouse Red blood cells assessed as hemolysis at 10 to 100 uM incubated for 2 hrs; format: toxicity, cell-based, Erythrocyte; settings: dose 10-100 µM, read-out: Activity
[17] = tested on: NCI-H460; assay: Upregulation of gamma-H2AX expression in human NCI-H460 cells by Western blot analysis; format: functional, cell-based
[18] = tested on: HeLa; assay: Anti-tumor activity against human HeLa cells assessed as cell viability incubated for 48 hrs by CCK-8 assay; format: functional, cell-based
[19] = tested on: NCI-H460; assay: Induction of apoptosis in human NCI-H460 cells assessed as increase in caspase-3 level at 500 nM incubated for 24 hrs by Western blot analysis; format: functional, cell-based
[20] = tested on: NCI-H460; assay: Induction of apoptosis in human NCI-H460 cells assessed as increase in BAX level at 500 nM incubated for 24 hrs by Western blot analysis; format: functional, cell-based
[21] = tested on: NCI-H460; assay: Antitumor activity against human NCI-H460 cells xenografted in athymic nude mouse assessed as tumor growth inhibition at 10 mg/kg, iv administered every 2 days and measured after 2 weeks; format: functional; settings: NCI-H460, 336 h, read-out: TGI
[22] = tested on: NCI-H460; assay: Antitumor activity against human NCI-H460 cells xenografted in athymic nude mouse assessed as change in tumor volume at 10 mg/kg, iv administered every 2 days and measured after 2 weeks; format: functional, organism-based
[23] = Toxicity in male athymic nude mouse assessed as alveolar wall hyperplasia at 10 mg/kg, iv administered every 2 days and measured after 2 weeks by H and E staining based analysis; format: organism-based; settings: in vivo, 336 h
[24] = tested on: NCI-H460; assay: Antitumor activity against human NCI-H460 cells xenografted in athymic nude mouse assessed as change in tumor weight at 10 mg/kg, iv administered every 2 days and measured after 2 weeks; format: functional, organism-based

SMILES	IC50 [1] [µM]	further results
N#Cc1ccccc1[Se]c1c(-c2ccccc2)ncc2ccccc12	> 100	–
Fc1ccccc1[Se]c1c(-c2ccccc2)ncc2ccccc12	> 100	–
COc1ccc([Se]c2c(-c3ccccc3)ncc3cc(Br)ccc23)cc1	94.8	–
C[Se]c1c(-c2ccccc2)ncc2ccccc12	> 100	–
COc1ccc([Se]c2c(-c3ccsc3)ncc3ccccc23)cc1	44.5	–
Brc1ccc([Se]c2c(-c3ccccc3)ncc3ccccc23)cc1	> 100	–
Fc1ccc2c([Se]c3ccccc3)c(-c3ccccc3)ncc2c1	> 100	–
FC(F)(F)c1ccccc1[Se]c1c(-c2ccccc2)ncc2ccccc12	68	–
c1ccc([Se]c2c(-c3ccccc3)ncc3sccc23)cc1	65.6	–
c1ccc([Se]c2c(-c3cc4ccccc4c4ccccc34)ncc3ccccc23)cc1	> 100	–
Clc1cccc([Se]c2c(-c3ccccc3)ncc3ccccc23)c1	56.7	–
Fc1ccc([Se]c2c(-c3ccccc3)ncc3ccccc23)cc1	20.3	–
Cc1ccc(-c2cc(C(F)(F)F)nn2-c2ccc(S(N)(=O)=O)cc2)cc1 [CELECOXIB]	–	IC50 [2]: > 20 µM; IC50 [3]: > 20 µM
FC(F)(F)c1cccc([Se]c2c(-c3ccccc3)ncc3ccccc23)c1	47.2	–
c1ccc([Se]c2c(-c3ccc(-c4ncc5ccccc5c4[Se]c4ccccc4)cc3)ncc3ccccc23)cc1	> 100	–
COc1ccc([Se]c2c(-c3ccccc3)ncc3cccc(F)c23)cc1	53.2	–
c1ccc([Se]c2c(-c3c4ccccc4c(-c4ncc5ccccc5c4[Se]c4ccccc4)c4ccccc34)ncc3ccccc23)cc1	> 100	–
COc1ccc([Se]c2c(-c3ccccc3)ncc3sccc23)cc1	33.6	–
COc1ccc([Se]c2c(-c3ccc4ccccc4c3)ncc3ccccc23)cc1	> 100	–
c1ccc([Se]c2c(-c3ccccc3)ncc3ccccc23)cc1	61.6	–
c1ccc([Se]c2c(-c3ccc(-c4cc(-c5ccc(-c6ncc7ccccc7c6[Se]c6ccccc6)cc5)cc(-c5ccc(-c6ncc7ccccc7c6[Se]c6ccccc6)cc5)c4)cc3)ncc3ccccc23)cc1	> 100	–
COc1ccc(-c2ncc3ccccc3c2[Se]c2ccccc2)cc1	> 100	–
Clc1ccc(-c2ncc3ccccc3c2[Se]c2ccccc2)cc1	> 100	–

SMILES	IC50 [1] [µM]	further results
COc1ccc([Se]c2c(-c3ccccc3)ncc3ccccc23)cc1	6.39	Activity [4]: Active; N-cadherin expression decrease (qualitative activity) [5]: Active; Activity [6]: 20.8%; inhibition [7]: Active; inhibition [8]: Active; Activity [9]: inactive; Activity [10]: Active; Activity [11]: Non-toxic; Activity [12]: inactive; inhibition [13]: Active; Activity [14]: Active; Activity [15]: Active; hemolysis at 2 h, 100 µM [16]: < 1%; Activity [17]: Active; Activity [18]: inactive; Activity [19]: Active; Activity [20]: Active
Fc1cccc([Se]c2c(-c3ccccc3)ncc3ccccc23)c1	> 100	–
Clc1ccc([Se]c2c(-c3ccccc3)ncc3ccccc23)cc1	82	–
COc1ccc([Se]c2c(-c3ccccc3)ncc3ccc(OC)cc23)cc1	5.9	Activity [4]: Active; N-cadherin expression decrease (qualitative activity) [5]: Active; Activity [6]: 31.5%; inhibition [7]: Active; inhibition [8]: Active; Activity [9]: inactive; Activity [10]: Active; Activity [11]: Non-toxic; Activity [12]: inactive; inhibition [13]: Active; Activity [14]: Active; Activity [15]: Active; hemolysis at 2 h, 100 µM [16]: < 1%; Activity [17]: Active; Activity [18]: inactive; Activity [19]: Active; Activity [20]: Active
N#Cc1ccc([Se]c2c(-c3ccccc3)ncc3ccccc23)cc1	> 100	–
Cc1ccc([Se]c2c(-c3ccccc3)ncc3ccccc23)cc1	52	–
Cc1ccccc1[Se]c1c(-c2ccccc2)ncc2ccccc12	61.6	–
COc1ccc([Se]c2c(-c3ccccc3)ncc3cc(C)ccc23)cc1	16.6	–
c1ccc([Se]c2c(C3CC3)ncc3ccccc23)cc1	> 100	–
COc1ccc2c([Se]c3ccccc3)c(-c3ccccc3)ncc2c1	76.6	–
Cc1ccc(-c2ncc3ccccc3c2[Se]c2ccccc2)cc1	> 100	–
c1ccc([Se]c2c(-c3ccccc3)ncc3cc4c(cc23)OCO4)cc1	34.2	–
Fc1ccc(-c2ncc3ccccc3c2[Se]c2ccccc2)cc1	> 100	–
O=P1(N(CCCl)CCCl)NCCCO1 (configuration not stated) [CYCLOPHOSPHAMIDE ANHYDROUS]	114	–
COc1ccc([Se]c2c(-c3ccc(Cl)cc3)ncc3ccccc23)cc1	77.3	–
COc1ccc([Se]c2c(-c3ccccc3)ncc3cc(Cl)ccc23)cc1	93.3	–
COc1ccc([Se]c2c(-c3ccccc3)ncc3cc(C(F)(F)F)ccc23)cc1	42.6	–
COc1ccc([Se]c2c(-c3ccccc3)ncc3cc(F)ccc23)cc1	39	–
N#C[Se]Cc1cc(-c2ccccc2)n(-c2ccc(S(N)(=O)=O)cc2)n1	–	IC50 [2]: 5 µM
COc1ccc([Se]c2cc(-c3ncc4ccccc4c3[Se]c3ccc(OC)cc3)cc([Se]c3ccc(OC)cc3)c2N)cc1	> 100	–
c1ccc([Se]c2c(-c3ccc(-c4ccccc4)cc3)ncc3ccccc23)cc1	> 100	–
CCCCc1ncc2ccccc2c1[Se]c1ccccc1	> 100	–
CC(C)(C)c1ccc(-c2ncc3ccccc3c2[Se]c2ccccc2)cc1	40.8	–

SMILES	IC50 [1] [µM]	further results
Brc1c2ccccc2c(-c2ncc3ccccc3c2[Se]c2ccccc2)c2ccccc12	> 100	–
c1ccc([Se]c2c(-c3ccsc3)ncc3ccccc23)cc1	> 100	–
CC(C)(C)c1ncc2ccccc2c1[Se]c1ccccc1	> 100	–
Clc1ccccc1[Se]c1c(-c2ccccc2)ncc2ccccc12	> 100	–
Cc1ccc2c([Se]c3ccccc3)c(-c3ccccc3)ncc2c1	> 100	–
COc1ccc([Se]c2c(-c3ccccc3)ncc3cc4c(cc23)OCO4)cc1	> 100	–
COc1cc2cnc(-c3ccccc3)c([Se]c3ccccc3)c2cc1OC	42.3	–
c1ccc([Se]c2c(-c3ccc4ccccc4c3)ncc3ccccc23)cc1	54.8	–
COc1ccc([Se]c2c(-c3ccc(Br)cc3)ncc3ccccc23)cc1	> 100	–
FC(F)(F)c1ccc([Se]c2c(-c3ccccc3)ncc3ccccc23)cc1	53.6	–
CCCCc1ncc2ccccc2c1[Se]c1ccc(OC)cc1	> 100	–
CN(C)c1ccc([Se]c2c(-c3ccccc3)ncc3ccccc23)cc1	> 100	–
Cc1cccc([Se]c2c(-c3ccccc3)ncc3ccccc23)c1	38	–
Brc1ccc(-c2ncc3ccccc3c2[Se]c2ccccc2)cc1	> 100	–
Clc1ccc2c([Se]c3ccccc3)c(-c3ccccc3)ncc2c1	99.2	–
FC(F)(F)c1ccc2c([Se]c3ccccc3)c(-c3ccccc3)ncc2c1	51.9	–
COc1ccccc1[Se]c1c(-c2ccccc2)ncc2ccccc12	64.2	–
N#Cc1cccc([Se]c2c(-c3ccccc3)ncc3ccccc23)c1	68	–
CC[C@@]1(O)C(=O)OCc2c1cc1n(c2=O)Cc2cc3ccccc3nc2-1 [CAMPTOTHECIN]	2.46	inhibition [5]: Active; Activity [6]: 39.1%; inhibition [7]: Active; inhibition in vivo at 10 mg/kg [21]: 66%; Activity [22]: Active; Activity [17]: Active; Activity [23]: Toxic; Activity [24]: Active
Brc1ccc2c([Se]c3ccccc3)c(-c3ccccc3)ncc2c1	86.2	–
COc1ccc([Se]c2c(-c3ccccc3)ncc3cc(OC)ccc23)cc1	8.58	–
c1ccc([Se]c2c(-c3ccccc3)ncc3cccnc23)cc1	42.3	–
COc1cccc([Se]c2c(-c3ccccc3)ncc3ccccc23)c1	56.5	–
